Results: patent US20180267067A1, “METHODS FOR BIOANALYSIS OF 6-DIAZO-5-OXO-L-NORLEUCINE (DON) AND OTHER GLUTAMINE ANTAGONISTS” (THE JOHNS HOPKINS UNIVERSITY, priority 2015, published 2018)
Read-outs that look alike come from different tables or passages of the source.

Assays:
[1] = DON plasma pharmacokinetics in mice after i.v. administration (LC-MS after acidified butanol derivatization); assay type: in vivo; conditions: male, C57BL/6, mouse, iv, 1.6 mg/kg i.v.
Protocol: FIG. 5A and FIG. 5B show: (FIG. 5A) DON concentrations in plasma over time. Mice were administered DON at 1.6 mg/kg (i.v.). Mice were euthanized and blood was collected transcardially 0.25, 0.5, 1, 2, 4 and 6 hours after dosing. Blood was centrifuged, plasma collected and stored at −80° C. N-butanol containing 3N HCl (250 μL) was added directly to samples (50 μL) and centrifuged at 16,000×g for 5 min to precipitate proteins. An aliquot (200 μL) of the supernatant was incubated at 60° C. for 30 min. After derivatization, the samples were analyzed by LC-MS (methods); and (FIG. 5B) DON plasma to brain ratio analysis. Mice were administered DON (0.6 mg/kg, i.p.) and blood and brain were collected 1 h after DON administration. […] Resulting homogenates were centrifuged at 16,000×g for 5 min to precipitate proteins and analyzed the same way as the plasma samples. […]
(§1) When using plasma, DON was derivatized only using 3N HCl plus n-butanol and subsequently analyzed by LC-MS. […] After derivatization, an aliquot of the reaction mixture (2 μL) was injected and analyzed by LC-MS as stated above. The area under the curve (AUC) representing the signal intensity of the extracted ion (m/z 218.0942) for each sample was used to generate the standard curve using Agilent Mass Hunter Quantitative analysis software. […] DON concentrations in plasma samples were determined by interpolation using the standard curve. […]

[2] = DON plasma and brain concentrations in mice after i.p. administration (LC-MS after acidified butanol derivatization); assay type: in vivo; conditions: for Kp at 1 h: brain/plasma
Protocol: FIG. 5A and FIG. 5B show: (FIG. 5A) DON concentrations in plasma over time. Mice were administered DON at 1.6 mg/kg (i.v.). Mice were euthanized and blood was collected transcardially 0.25, 0.5, 1, 2, 4 and 6 hours after dosing. Blood was centrifuged, plasma collected and stored at −80° C. N-butanol containing 3N HCl (250 μL) was added directly to samples (50 μL) and centrifuged at 16,000×g for 5 min to precipitate proteins. An aliquot (200 μL) of the supernatant was incubated at 60° C. for 30 min. After derivatization, the samples were analyzed by LC-MS (methods); and (FIG. 5B) DON plasma to brain ratio analysis. Mice were administered DON (0.6 mg/kg, i.p.) and blood and brain were collected 1 h after DON administration. Plasma was isolated from blood samples as described in (FIG. 5A). Brains were collected following perfusion with PBS and frozen immediately at −80° C. Before bioanalysis, brains were weighed and n-butanol containing 3N HCl was added to each sample (5 μL/mg tissue) and homogenized using a pestle. Resulting homogenates were centrifuged at 16,000×g for 5 min to precipitate proteins and analyzed the same way as the plasma samples. All determinations in both (A) and (B) were carried out in triplicate. Error bars correspond to ±S.E.M; and
When using plasma, DON was derivatized only using 3N HCl plus n-butanol and subsequently analyzed by LC-MS. To generate the standard curve to determine DON concentrations in plasma, DON (10 μL of 1 mM water solution) was added to untreated mouse plasma (90 μL) in a low retention micro-centrifuge tube. Standard solutions (100 μL) were then prepared by serial dilution to generate concentrations from 10 nM to 100 μM at half-log intervals. Prior to extraction, frozen plasma samples were thawed on ice. N-butanol (250 μL) containing 3N HCl was added directly to standards (50 μL), vortexed and centrifuged at 16,000×g for 5 minutes in low retention micro-centrifuge tubes to precipitate proteins. […] After derivatization, an aliquot of the reaction mixture (2 μL) was injected and analyzed by LC-MS as stated above. The area under the curve (AUC) representing the signal intensity of the extracted ion (m/z 218.0942) for each sample was used to generate the standard curve using Agilent Mass Hunter Quantitative analysis software. […] DON concentrations in plasma samples were determined by interpolation using the standard curve.
When using brain, DON was derivatized only using 3N HCl plus n-butanol and subsequently analyzed by LC-MS. […] After derivatization, an aliquot of the reaction mixture (2 μL) was injected and analyzed by LC-MS as stated above. […] DON concentrations in brain samples were determined by interpolation using the standard curve. […]

[3] = DON concentration in plasma from DON-treated mice, direct versus derivatization protocols; conditions: male, C57BL/6, mouse, in vivo, iv, 1.6 mg/kg, 1.6 mg/kg i.v., 15 min after administration, N=3, ±S.D.
Protocol: Mouse plasma samples were obtained 15 min after DON administration (1.6 mg/kg, i.v.). For LC-MS bioanalysis of underivatized DON from plasma, DON was extracted from plasma with methanol, dried and resuspended in H2O and separated in a Hypercarb column. For LC-MS bioanalysis of derivatized DON from plasma, DON was derivatized in butanol containing 3N HCl for 30 min at 60° C., dried, reconstituted in 30% acetonitrile and separated by RPC. Analytes eluting after each chromatographic separation were detected by QTOF MS. N=3 for each treatment. Error bars correspond to ±S.D.
Methanol (250 μL) was added to plasma samples containing DON (50 μL); samples were centrifuged for 5 min at 16,000×g to precipitate proteins. […] Analytes were detected with an Agilent 6520 QTOF in MS mode as when analyzing derivatized DON by LC-MS.
as §1

For `[N-]=[N+]=CC(=O)CC[C@H](N)C(=O)O` [DON, 6-Diazo-5-oxo-L-norleucine], the AUC ([1]; in vivo, 0.25-6 h, read-out: exposure of DON estimated from the area under the curve (AUC)) was 8 µM·h, the half-life [1] was 72 min and the “DON concentration in brain” value ([2]; 0.6 mg/kg i.p., 1 h after administration, brains perfused with PBS, ±S.E.M.) was 0.22±0.18 nmol/g tissue. For the same molecule, the Kp at 1 h ([2]; male, C57BL/6, mouse, intraperitoneal, 0.6 mg/kg, at 1 h, read-out: brain/plasma ratio) was 0.1, the Kp at 1 h ([2]; male, C57BL/6, mouse, ip, 0.6 mg/kg i.p., 1 h, read-out: brain to plasma ratio) was about 0.1 and the concentration at 1 h ([2]; male, C57BL/6, mouse, plasma, ip, 0.6 mg/kg i.p., 1 h after administration, ±S.E.M.) was 1700 ± 500 nM. The concentration at 15 min ([3]; read-out: DON concentration in plasma, derivatization method (acidified butanol, LC-MS)) was 4.2 µM and the concentration at 15 min ([3]; read-out: DON concentration in plasma, direct method (underivatized DON, Hypercarb LC-MS)) was 3.9 µM.
